Data from ChEMBL document CHEMBL1156732, “Identification of SVM-based classification model, synthesis and evaluation of prenylated flavonoids as vasorelaxant agents” (Bioorg Med Chem, 2008).

How the values were obtained:
Aorta [1] = test: Vasorelaxant activity against phenylephrine-induced contraction in Sprague-Dawley rat aorta relative to phenylephrine; format: functional
Aorta [2] = test: Vasorelaxant activity against phenylephrine-induced contraction in Sprague-Dawley rat aorta; format: functional, tissue-based

`CC(C)=CCc1c(O)cc(O)c2c1OC(c1ccccc1)CC2=O` (racemic) gave an Emax (Aorta [1]) of 122% and an EC50 (Aorta [2]) of 5.79 µM.

For `CC(C)=CCc1c(O)cc(O)c(C(=O)/C=C/c2ccc3c(c2)OCO3)c1O`, the Emax (Aorta [1]) was 90% and the EC50 (Aorta [2]) was 4.21 µM.

`CC(C)=CCc1c(O)cc(O)c2c(=O)cc(-c3cccc(Br)c3)oc12` gave an Emax (Aorta [1]) of 82.8% and an EC50 (Aorta [2]) of 95.9 µM.

Molecule `COc1cc(-c2cc(=O)c3c(O)cc(O)c(CC=C(C)C)c3o2)cc(OC)c1OC` has an Emax (Aorta [1]) of 90.1% and an EC50 (Aorta [2]) of 64.3 µM.

`CC(C)=CCc1c(O)cc(O)c2c1OC(c1ccc3c(c1)OCO3)CC2=O` (racemic) gave an Emax (Aorta [1]) of 77.3% and an EC50 (Aorta [2]) of 1.32 µM.

Molecule `CC(C)=CCc1c(O)cc(O)c2c(=O)cc(-c3cccc(O)c3)oc12` has an Emax (Aorta [1]) of 64.6%.

`COc1cc(-c2cc(=O)c3c(O)cc(O)c(CC=C(C)C)c3o2)ccc1O` gave an Emax (Aorta [1]) of 70.6% and an EC50 (Aorta [2]) of 49.3 µM.

`CC(C)=CCc1c(O)cc(O)c2c1OC(c1cccc(Br)c1)CC2=O` (racemic) showed an Emax (Aorta [1]) of 78.2% and an EC50 (Aorta [2]) of 1.56 µM.

`COc1cc(/C=C/C(=O)c2c(O)cc(O)c(CC=C(C)C)c2O)cc(OC)c1OC` showed an Emax (Aorta [1]) of 78.5%.

In the case of `CC(C)=CCc1c(O)cc(O)c(C(=O)/C=C/c2ccc(Cl)cc2)c1O`, the Emax (Aorta [1]) is reported as 64.4% and the EC50 (Aorta [2]) is reported as 679 µM.

Molecule `COc1cc(C2CC(=O)c3c(O)cc(O)c(CC=C(C)C)c3O2)ccc1O` (racemic) has an Emax (Aorta [1]) of 95.8% and an EC50 (Aorta [2]) of 10.1 µM.
